These results are taken from patent US20110263664A1, “Inhibitors of PIM-1 Protein Kinases, Compositions and Methods for Treating Prostate Cancer” (MUSC FOUNDATION FOR RESEARCH DEVELOPMENT, priority 2007, published 2011).

In general, IC50 refers to the concentration that inhibits the measured activity by half.

One data set deals with PIM2 (Homo sapiens, UniProt Q9P1W9). In words: Pim-2 kinase IC50, Table 2. Format: biochemical.
For data set [1], the target named is T1, PIM1 (Homo sapiens, UniProt P11309). Description: Pim-1 protein kinase assay (Procedure 1), Table 1. On the set-up: purchased Upstate 14-573. Format: biochemical.
T1 sequence (P11309 whole entry): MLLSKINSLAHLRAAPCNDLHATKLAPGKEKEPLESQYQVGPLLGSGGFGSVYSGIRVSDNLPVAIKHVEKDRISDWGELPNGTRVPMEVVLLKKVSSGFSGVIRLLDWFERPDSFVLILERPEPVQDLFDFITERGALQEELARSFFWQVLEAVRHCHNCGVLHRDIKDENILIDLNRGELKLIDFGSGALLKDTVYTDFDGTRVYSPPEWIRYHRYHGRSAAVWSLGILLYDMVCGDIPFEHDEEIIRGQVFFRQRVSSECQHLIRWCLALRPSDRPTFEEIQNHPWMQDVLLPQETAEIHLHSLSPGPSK
From the text: The following in vitro procedure can be used to evaluate compounds for inhibition of Pim-1 protein kinase.
Data set [2] concerns Human prostate cancer PC3 cells. In words: Cytotoxicity assay (MTS), PC3 cells, Table 3. The format is cell-based. The following applies: PC-3, 48 hours, read-out: IC50 (PC3 cell assay).
Method: Varying concentrations of the test compounds are then added to each well, and the plates were incubated for an additional 48 hours. The number of surviving cells was determined by the MTS assay (Promega). The percentage of cells killed was calculated as the percentage decrease in MTS metabolism compared with control cultures.
The next data set relates to AMPK protein kinase. In words: Phosphorylation of AMPK on threonine 172. The text has this:
This phosphorylation is known to activate this protein kinase and lead to the phosphorylation of TSC2 and the inhibition of TOR protein kinase (Molecular Cell 30: 214-226, 2008; Oncogene 26: 1616-1625, 2007).

In the next data set the test system is DU145 and MV7;11 cells. In words: Cell cycle distribution by FACS. The following applies: 5 μM for 72 hours; DU145 in 2% serum, MV7;11 in 10% serum; compared to DMSO control.
Data set [3] has as its system p27^Kip1 in K562, U937, and MV7;11 cells. Description: p27Kip1 location in cytoplasmic and nuclear fractions. Format: cell-based, human. The note with it: 72 hours, media containing 10% FCS; all three cell lines. The procedure: To examine p27^Kip1 location, K562, U937 or MV7;11 cells (1×10^5/mL) were incubated for 72 hours in complete media with DMSO or a disclosed Pim-1 and/or Pim-2 inhibitor. Cells were harvested, washed in PBS and cytoplasmic and nuclear fractions were prepared using the NE-PER Nuclear and Cytoplasmic Extraction kit (Pierce Biotechnology, Rockford, Ill.) according to the manufacturer's instructions, followed by SDS-PAGE and western blotting with anti-p27^Kip1 antibody, as described above. To measure Cdk2 activity, this protein was immunoprecipitated from K562, U937, or MV7;11 cells treated for 72 hours with Pim inhibitors, lysed in buffer (50 mM Tris-HCl, pH 8.0 containing 5 mM EDTA, 150 mM NaCl, 1% NP-40 and 1 mM phenylmethylsulfonyl fluoride) followed by the addition of Cdk2 antibody (2 μg). Samples were then rotated overnight at 4° C., and Cdk2 was immunoprecipitated by the addition of protein G beads (Pierce Biotechnology) with rotation at room temperature for 1 h. […] Reactions were allowed to proceed for 15 minutes at 37° C., and then analyzed by SDS-PAGE. ^32P-Phosphorylated histone H1 was visualized by autoradiography, and Cdk2 protein levels detected by Western blotting, as described above.

Data set [4] relates to PC-3 prostate cancer cell. Description: PC-3 cell viability with or without rapamycin. Format: cell-based, human. The note with it: administered alone, doses of 1 and 3 μM, after 36 hours. The source says:
FIG. 5 depicts the results of these experiments.

Another data set deals with MV7;11 and FDCP1 cells. Description: Combined treatment with rapamycin, growth inhibition. Format: cell-based.
For data set [5], the system named is 4E-BP1 phosphorylation in FDCP1 cells.
For a further data set, the system named is 22Rv1-Pim cells. Description: Apoptosis (sub G1, FACS) in 22Rv1-Pim cells. The note with it: 5 μM, 72 hours, serum-free conditions.
Data set [6] deals with phosphoBad in FDCP1-Pim cells. Description: PhosphoBad time course in FDCP1-Pim cells. The format is cell-based, murine. The following applies: 5 μM, serum and IL-3-free conditions, by 2 hours, compared to DMSO-treated cells.
In data set [7] the test system is PC3, DU145, LNCaP, U937, K582, and MV7;11 cell lines. Description: Growth inhibition of cancer cell lines, 72 hours. The format is cell-based, human. The following applies: treatment for 72 hours in culture.
Data set [8] deals with phosphoBad in 22Rv1-Pim and DU145-Pim cells. Description: PhosphoBad level by Western blotting in Pim-1 transfected prostate cancer cells. The format is cell-based, human. The note with it: 1 hour, serum-free conditions; total Bad constant. On the technique in general: In western blotting, separated proteins are transferred to a membrane and probed.
Data set [9] has as its system Cdk2 activity in K562 cells. The note with it: K562 cells treated 72 hours, 10% FCS; histone H1 as substrate.
The target of data set [10] is T1, PIM1. The following applies: 5 μM, in vitro.
The target of data set [11] is T1, PIM1. Description: biochemical.

Structures are written as SMILES. Where two headings read alike, the source gives them in different places. Bounds are passed on as bounds.

Chain of PIM2 (Q9P1W9 whole entry): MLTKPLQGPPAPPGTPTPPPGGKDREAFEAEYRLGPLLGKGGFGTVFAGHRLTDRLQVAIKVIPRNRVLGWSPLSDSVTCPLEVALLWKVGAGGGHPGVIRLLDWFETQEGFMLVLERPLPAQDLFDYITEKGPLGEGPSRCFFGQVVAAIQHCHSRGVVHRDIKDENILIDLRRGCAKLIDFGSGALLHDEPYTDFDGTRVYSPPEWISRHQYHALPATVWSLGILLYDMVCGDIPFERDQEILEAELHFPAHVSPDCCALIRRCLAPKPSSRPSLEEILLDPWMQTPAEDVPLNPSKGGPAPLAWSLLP

`O=C1NC(=O)/C(=C/c2cccc(F)c2)S1` [Compound D1]: the concentration for half-maximal inhibition (IC50) against PIM2 was determined as 400 ± 200 nM; on PIM1 [1], 130 ± 60 nM.
The corresponding values for `O=C1NC(=O)/C(=C/c2cccc(Cl)c2)S1` [Compound D2] are 400 ± 150 nM and 600 ± 510 nM.
Turning to `O=C1NC(=O)/C(=C/c2cccc(Br)c2)S1` [Compound D3], the IC50 stood at 58 ± 11 µM in [2], 90 ± 40 nM at PIM2 and 45000 ± 11000 nM against PIM1 [1].
As for `Cc1cccc(/C=C2\SC(=O)NC2=O)c1` [Compound D4], the 50% inhibitory concentration (IC50) against PIM2 turned out to be 100 ± 100 nM; against PIM1 [1], 160 ± 40 nM.
As for `O=C1NC(=O)/C(=C/c2cccc(C(F)(F)F)c2)S1` [Compound D5, 5-(3-trifluoromethylbenzylidene)thiazolidine-2,4-dione], in the data set on AMPK protein kinase, the “phosphorylation of AMPK on threonine 172” value is “increase the phosphorylation”. For the same compound, in the data set with DU145 and MV7;11 cells, the cell cycle arrest entry is reported as “significant G1 cell cycle arrest”. In addition, the “amount of p27^Kip1 in nuclear fractions” value in [3] is “increase in the amount of p27^Kip1 in nuclear fractions”. Further, the “inhibition of cell viability” value in [4] is given as 40%. Besides, half-maximal inhibition against PIM2 (IC50) required 100 ± 300 nM. The “growth inhibition, combined treatment with rapamycin” value with MV7;11 and FDCP1 cells is recorded as “significant growth inhibition”. Also, the “concentration at which phosphorylation of 4E-BP1 was inhibited” value in data set [5] (1 hour, absent rapamycin) fell in the range of 1.6 to 3.2 µM. Moreover, the “effect on rapamycin inhibition of 4E-BP1 phosphorylation” value in data set [5] (with or without serum, combined with rapamycin) is “enhanced the ability of rapamycin to inhibit 4E-BP1 phosphorylation”. Moreover, the “sub G1 population” value in the data set on 22Rv1-Pim cells amounted to 38.1%. Also, the phosphoBad levels result in [6] is on record as “reduction in phosphoBad levels”. In addition, the “growth inhibition of cancer cell lines” value in [7] was “growth inhibition of each cell line”.
On to `COc1cccc(/C=C2\SC(=O)NC2=O)c1` [Compound D6], for which the results for the half-maximal inhibitory concentration (IC50) (in data set [2]; at PIM1 [1]) were 73 ± 13 µM and 650 ± 50 nM, respectively.
With `O=C1NC(=O)/C(=C/c2cccc(OC(F)(F)F)c2)S1` [Compound D7], the half-maximal inhibitory concentration (IC50) at PIM2 came to 900 ± 400 nM; on PIM1 [1], 67 ± 61 nM.
For the compound `O=C1NC(=O)/C(=C/c2cccc(OC(F)(F)C(F)F)c2)S1` [Compound D8], the IC50 stood at 2200 ± 1100 nM on PIM2 and 73 ± 53 nM against PIM1 [1].
In the case of `O=C1NC(=O)/C(=C/c2ccc(F)cc2)S1` [Compound D9], the concentration for half-maximal inhibition (IC50) in [2] came out at 93 ± 5 µM; against PIM2 it was 2300 ± 100 nM.
Take `O=C1NC(=O)/C(=C/c2ccc(Cl)cc2)S1` [Compound D10]: the IC50 on PIM2 stood at 200 ± 100 nM; against PIM1 [1], 40 ± 30 nM.
The compound `O=C1NC(=O)/C(=C/c2ccc(Br)cc2)S1` [Compound D11] returned a half-inhibitory concentration (IC50) against PIM1 [1] of 28000 ± 23000 nM.
With `Cc1ccc(/C=C2\SC(=O)NC2=O)cc1` [Compound D12], the half-inhibitory concentration (IC50) in [2] was more than 100 µM; on PIM2, 4400 ± 200 nM.
In the case of `CCc1ccc(/C=C2\SC(=O)NC2=O)cc1` [Compound D13], the IC50 turned out to be 300 ± 100 nM against PIM2 and 600 ± 100 nM against PIM1 [1].
As to `COc1ccc(/C=C2\SC(=O)NC2=O)cc1` [Compound D14], the half-inhibitory concentration (IC50) in data set [2] worked out at 11 ± 1 µM; on PIM2 it was 300 ± 100 nM; against PIM1 [1], 5100 ± 5000 nM.
For the compound `CCOc1ccc(/C=C2\SC(=O)NC2=O)cc1` [Compound D15], the IC50 in data set [2] worked out at 65 ± 17 µM; against PIM2 it was 43000 ± 18000 nM; on PIM1 [1] it was 170 ± 40 nM.
In the case of `CCCOc1ccc(/C=C2\SC(=O)NC2=O)cc1` [Compound D16, 5-(4-propoxybenzylidene)thiazolidine-2,4-dione], the “phosphorylation of AMPK on threonine 172” value in the data set with AMPK protein kinase is “increase the phosphorylation”. In addition, the “level of phosphoBad” value in data set [8] was “decreased in a dose-dependent manner”. Also, the cell cycle arrest entry in the data set with DU145 and MV7;11 cells is given as “significant G1 cell cycle arrest”. In addition, the “decreased Cdk2 activity” value in [9] is approximately 60%. In [3], the “amount of p27^Kip1 in nuclear fractions” value was “increase in the amount of p27^Kip1 in nuclear fractions”. Besides, the half-inhibitory concentration (IC50) on PIM2 came to 20 ± 10 nM; against PIM1 [1] it was 150 ± 110 nM; against PIM1 [11] it was 63 ± 11 nM. In addition, on PIM1 [10], the “phosphorylation of p27^Kip1 by Pim-1” value is listed as “reduce phosphorylation”. In the data set with MV7;11 and FDCP1 cells (72 hours, rapamycin 5 nM plus compound 5 μM, MV7;11 and FDCP1 cells), the “growth inhibition, combined treatment with rapamycin” value is on record as “significant growth inhibition”. Further, in [7], the “growth inhibition of cancer cell lines” value is recorded as “growth inhibition of each cell line”.
Consider `CC(C)c1ccc(/C=C2\SC(=O)NC2=O)cc1` [Compound D17], for which the values for the concentration for half-maximal inhibition (IC50) on PIM2 and on PIM1 [1] were more than 100000 nM and 40 ± 30 nM, respectively.
The corresponding values for `O=C1NC(=O)/C(=C/c2ccc(C(F)(F)F)cc2)S1` [Compound D18] are 80 ± 20 nM and 330 ± 130 nM.
Regarding `O=C1NC(=O)/C(=C/c2ccc(OC(F)(F)F)cc2)S1` [Compound D19], the concentration for half-maximal inhibition (IC50) in [2] was 48 ± 27 µM; against PIM2, 500 ± 200 nM.
Regarding `CN(C)c1ccc(/C=C2\SC(=O)NC2=O)cc1` [Compound D20], the half-inhibitory concentration (IC50) in [2] is 66 ± 13 µM; on PIM2 it was 100 ± 100 nM; on PIM1 [1], 6000 ± 1700 nM.
With `O=C1S/C(=C\c2ccc(F)cc2)C(=O)N1Cc1ccccc1F` [Compound D27], the IC50 is more than 100 µM in data set [2] and 45000 ± 15000 nM against PIM1 [1].
As for `O=C1NC(=O)N(Cc2ccccc2)/C1=C\c1ccc(Br)cc1` [Compound D30], the IC50 against PIM1 [1] worked out at 58000 ± 7500 nM.
The same measure, in the same setting: the figure for `CN(C)c1ccc(/C=C2/C(=O)NC(=O)N2Cc2ccccc2)cc1` [Compound D31] is 78000 ± 7500 nM.
In the case of `COc1cccc(/C=C2/C(=O)NC(=O)N2Cc2ccccc2)c1` [Compound D32], the IC50 in data set [2] stood at 80 ± 15 µM.
